Read-outs that look alike come from different tables or passages of the source.
Tests used:
[1] = target: D1 (Homo sapiens, UniProt P21728); test: GPCR panel, cAMP or calcium FLIPR assays; assay type: cell-based
Procedure: 28 GPCRs were evaluated through cAMP or calcium FLIPR assays[67].

[2] = system: ex vivo stimulated IL-17A production; test: phase 1 single ascending dose study, ex vivo stimulated IL-17A production in whole blood; parameters: species or system human
Procedure: The sampling was performed up to 120 h post-dose for cohort 1 (10 mg) and cohort 2 (30 mg), and extended to 504 h for cohort 3, 4 and 5.
Whole blood samples were collected on the morning of day 1 at pre-dose and at 1, 2, 6, 12, 24, 48, 96, and 120 h post-dose in Cohorts 1 and 2. For Cohort 3,4, and 5, samples were collected the morning of day 1 at pre-dose and at 2, 6, 12, 24, 48, 120, 312 and 504 h post-dose. Blood samples (1 ml) were drawn into TruCulture tubes (Myriad RBM, Austin, TX) which contained 2 ml of cocktail containing cell culture media and stimulants, then mixed and incubated at 37 °C in a block thermostat for 48 h. The final concentrations of the stimulants in the TruCulture tube incubations were: IL-23 (50 ng/ml), and IL-1β (10 ng/ml), with anti-CD3 and anti-CD28 antibodies at standard concentration as per standard CD3/CD28 TruCulture tubes. Negative control tubes (no stimulants) were also collected at each timepoint. Supernatants were collected after the end of the incubation period and analyzed to determine concentrations of induced IL-17A using a validated immunoassay method (human IL-17A V-plex kit from Meso Scale Discovery).

[3] = system: Sprague–Dawley rats; test: 1-month GLP toxicity study in rats; assay type: in vivo; settings: rat; recovered after 1-month recovery period
Procedure: (§1) The type of study plan was reviewed and agreed by the Laboratory Animal Welfare Officer and the Animal Ethical Committee (officially known as Dierexperimentencommissie (DEC) Charles River Den Bosch), as required by the Dutch Act on Animal Experimentation (February 1997). Both rat and dog studies were performed in AALAC accredited Charles River Laboratories in the Netherlands. Studies in rats were conducted with 0, 25, 100, and 400 mg/kg per day (n = 10/sex/group) for 1 month. An additional 5 animals/sex in vehicle and high dose were allowed to continue for a 1-month treatment-free recovery period. Studies in dogs were conducted with 0, 3, 10, and 30 mg/kg per day (n = 4/sex/group) for 1 month. A treatment-free recovery period of 1 month (additional 2 dogs/sex/group) was included for both vehicle controls and high dose groups. […] Rats and dogs were examined for mortality, clinical signs, ophthalmoscopic changes, body weight, food consumption, hematology, clinical chemistry, anatomic pathology, and toxicokinetics. In addition, dogs were examined for electrocardiographic changes. Rats and dogs were also assessed for reversal of any effects following a 1-month recovery period. These studies were conducted in compliance with good laboratory practice (GLP) regulations.

[4] = 1-month GLP toxicity study in rats; assay type: in vivo; settings: Sprague-Dawley, in vivo, rat; for AUC(0-t) / Cmax: po, 400 mg/kg/day; for AUC(0-t): read-out: AUC0-24 h at NOAEL; for Cmax: read-out: Cmax at NOAEL
Procedure: as §1

[5] = target: T1, B2 (h) (Homo sapiens, UniProt P30411); test: Cerep panel; assay type: binding
T1 construct: purchased Cerep (receptors, ion channels, transporters); Eurofins Panlabs (kinases)
Procedure: (§2) A panel of 52 different receptors, ion channels and transporters was tested by Cerep, Inc. (Redmond, WA).

[6] = target: T2, CLK2(h) (Homo sapiens, UniProt P49760); test: Kinase panel; assay type: biochemical
T2 construct: purchased Cerep (receptors, ion channels, transporters); Eurofins Panlabs (kinases)
Procedure: (§3) Kinase selectivity was conducted by Eurofins Panlabs Inc (St Charles, MO).

[7] = target: T3, GSK3α(h) (Homo sapiens, UniProt P49840); test: Kinase panel; assay type: biochemical
T3 construct: purchased Cerep (receptors, ion channels, transporters); Eurofins Panlabs (kinases)
Procedure: as §3

[8] = target: T4, ETA (h) (Homo sapiens, UniProt P25101); test: Cerep panel; assay type: binding
T4 construct: purchased Cerep (receptors, ion channels, transporters); Eurofins Panlabs (kinases)
Procedure: as §2

[9] = target: T5, ORL1 (h) (NOP) (Homo sapiens, UniProt P41146); test: Cerep panel; assay type: binding
T5 construct: purchased Cerep (receptors, ion channels, transporters); Eurofins Panlabs (kinases)
Procedure: as §2

[10] = target: T6, A1 (h) (Homo sapiens, UniProt P30542); test: Cerep panel; assay type: binding
T6 construct: purchased Cerep (receptors, ion channels, transporters); Eurofins Panlabs (kinases)
Procedure: as §2

[11] = target: T7, PKCα(h) (Homo sapiens, UniProt P17252); test: Kinase panel; assay type: biochemical
T7 construct: purchased Cerep (receptors, ion channels, transporters); Eurofins Panlabs (kinases)
Procedure: as §3

[12] = target: T8, NK3 (h) (Homo sapiens, UniProt P29371); test: Cerep panel; assay type: binding
T8 construct: purchased Cerep (receptors, ion channels, transporters); Eurofins Panlabs (kinases)
Procedure: as §2

[13] = target: T9, LXRβ (Homo sapiens, UniProt P55055); test: nuclear receptor cellular GAL4 reporter assay; assay type: cell-based; settings: agonist and antagonist mode; read-out: potency in agonist and antagonist mode
T9 construct: expressed in transfected cells

[14] = target: T10, Aurora-A(h) (Homo sapiens, UniProt O14965); test: Kinase panel; assay type: biochemical
T10 construct: purchased Cerep (receptors, ion channels, transporters); Eurofins Panlabs (kinases)
Procedure: as §3

[15] = target: T11, Y2 (h) (Homo sapiens, UniProt P49146); test: Cerep panel; assay type: binding
T11 construct: purchased Cerep (receptors, ion channels, transporters); Eurofins Panlabs (kinases)
Procedure: as §2

[16] = target: T12, D1 (h) (Homo sapiens, UniProt P21728); test: Cerep panel; assay type: binding
T12 construct: purchased Cerep (receptors, ion channels, transporters); Eurofins Panlabs (kinases)
Procedure: as §2

[17] = target: T13, CXCR2 (h) (IL-8B) (Homo sapiens, UniProt P25025); test: Cerep panel; assay type: binding
T13 construct: purchased Cerep (receptors, ion channels, transporters); Eurofins Panlabs (kinases)
Procedure: as §2

[18] = target: TRα (Homo sapiens, UniProt P10827); test: nuclear receptor cellular GAL4 reporter assay; assay type: cell-based; settings: agonist and antagonist mode; read-out: potency in agonist and antagonist mode
[19] = system: bacterial reverse mutation assay (AMES test); test: bacterial reverse mutation assay (AMES test); assay type: cell-based; settings: in vitro
[20] = target: hNav1.5 (Homo sapiens, UniProt Q14524); test: follow-up functional study; assay type: cell-based; settings: read-out: IC50 in follow-up functional studies

T5 sequence (P41146 whole entry): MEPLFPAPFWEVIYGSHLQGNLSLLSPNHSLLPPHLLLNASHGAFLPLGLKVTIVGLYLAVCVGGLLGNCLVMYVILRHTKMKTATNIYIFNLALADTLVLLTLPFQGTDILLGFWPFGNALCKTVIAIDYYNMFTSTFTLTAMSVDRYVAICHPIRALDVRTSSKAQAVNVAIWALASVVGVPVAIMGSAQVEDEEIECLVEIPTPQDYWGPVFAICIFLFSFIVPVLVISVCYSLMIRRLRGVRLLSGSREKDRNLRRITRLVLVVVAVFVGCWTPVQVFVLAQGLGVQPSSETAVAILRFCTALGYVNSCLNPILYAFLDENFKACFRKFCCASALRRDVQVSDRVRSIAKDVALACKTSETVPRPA
T11 sequence (P49146 whole entry): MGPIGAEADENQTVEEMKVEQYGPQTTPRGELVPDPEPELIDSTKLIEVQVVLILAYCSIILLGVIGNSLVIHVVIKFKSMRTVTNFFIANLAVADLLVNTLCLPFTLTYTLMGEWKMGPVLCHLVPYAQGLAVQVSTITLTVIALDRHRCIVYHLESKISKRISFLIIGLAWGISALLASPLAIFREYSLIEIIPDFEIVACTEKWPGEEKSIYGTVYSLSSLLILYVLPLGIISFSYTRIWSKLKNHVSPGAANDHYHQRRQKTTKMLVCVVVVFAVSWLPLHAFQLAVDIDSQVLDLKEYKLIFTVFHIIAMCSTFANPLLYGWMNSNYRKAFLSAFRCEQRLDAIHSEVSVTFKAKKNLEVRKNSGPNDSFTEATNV
T1 sequence (P30411 whole entry): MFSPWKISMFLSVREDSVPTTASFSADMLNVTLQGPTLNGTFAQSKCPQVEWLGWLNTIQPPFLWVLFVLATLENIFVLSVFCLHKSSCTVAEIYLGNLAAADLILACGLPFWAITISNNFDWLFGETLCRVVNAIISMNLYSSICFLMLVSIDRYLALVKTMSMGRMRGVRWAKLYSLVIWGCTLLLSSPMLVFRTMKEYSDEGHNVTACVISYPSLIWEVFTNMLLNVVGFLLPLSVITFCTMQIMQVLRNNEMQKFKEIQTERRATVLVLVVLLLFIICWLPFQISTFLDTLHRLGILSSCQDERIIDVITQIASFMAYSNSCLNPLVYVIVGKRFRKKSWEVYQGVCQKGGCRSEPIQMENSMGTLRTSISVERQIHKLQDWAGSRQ
T8 sequence (P29371 whole entry): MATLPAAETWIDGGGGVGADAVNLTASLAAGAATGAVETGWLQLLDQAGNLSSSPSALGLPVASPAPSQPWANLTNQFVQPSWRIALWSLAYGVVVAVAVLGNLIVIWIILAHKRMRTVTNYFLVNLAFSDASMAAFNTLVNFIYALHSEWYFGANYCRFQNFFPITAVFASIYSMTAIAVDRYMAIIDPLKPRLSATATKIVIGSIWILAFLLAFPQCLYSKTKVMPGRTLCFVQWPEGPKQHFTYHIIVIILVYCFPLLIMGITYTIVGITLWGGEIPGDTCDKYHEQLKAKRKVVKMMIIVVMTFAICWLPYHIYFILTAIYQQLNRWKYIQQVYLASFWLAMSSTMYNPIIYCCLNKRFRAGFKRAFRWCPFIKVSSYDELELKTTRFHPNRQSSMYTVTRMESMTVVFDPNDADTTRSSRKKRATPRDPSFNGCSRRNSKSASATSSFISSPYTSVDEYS
T10 sequence (O14965 whole entry): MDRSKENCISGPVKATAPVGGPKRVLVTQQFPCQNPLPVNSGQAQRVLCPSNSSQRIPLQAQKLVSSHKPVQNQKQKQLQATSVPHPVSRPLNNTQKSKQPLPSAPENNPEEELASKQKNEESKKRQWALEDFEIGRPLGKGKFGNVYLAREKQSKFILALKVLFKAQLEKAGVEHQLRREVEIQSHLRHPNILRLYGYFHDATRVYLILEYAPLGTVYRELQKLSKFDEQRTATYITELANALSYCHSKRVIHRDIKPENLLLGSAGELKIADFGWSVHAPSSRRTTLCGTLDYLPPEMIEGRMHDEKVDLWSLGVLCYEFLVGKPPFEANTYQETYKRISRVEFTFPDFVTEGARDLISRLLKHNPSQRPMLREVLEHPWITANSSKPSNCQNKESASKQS
T4 sequence (P25101 21-427): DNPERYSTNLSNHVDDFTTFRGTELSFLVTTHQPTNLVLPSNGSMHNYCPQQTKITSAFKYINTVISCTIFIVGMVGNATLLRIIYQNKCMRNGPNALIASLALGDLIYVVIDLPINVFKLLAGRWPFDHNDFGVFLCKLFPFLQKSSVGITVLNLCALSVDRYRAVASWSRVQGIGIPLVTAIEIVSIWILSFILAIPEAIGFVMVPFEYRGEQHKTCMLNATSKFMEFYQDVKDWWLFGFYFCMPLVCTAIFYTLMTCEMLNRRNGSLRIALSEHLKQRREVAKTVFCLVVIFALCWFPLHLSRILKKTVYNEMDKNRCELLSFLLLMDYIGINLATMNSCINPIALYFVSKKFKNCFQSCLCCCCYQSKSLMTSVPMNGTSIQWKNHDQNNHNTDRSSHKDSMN
T6 sequence (P30542 whole entry): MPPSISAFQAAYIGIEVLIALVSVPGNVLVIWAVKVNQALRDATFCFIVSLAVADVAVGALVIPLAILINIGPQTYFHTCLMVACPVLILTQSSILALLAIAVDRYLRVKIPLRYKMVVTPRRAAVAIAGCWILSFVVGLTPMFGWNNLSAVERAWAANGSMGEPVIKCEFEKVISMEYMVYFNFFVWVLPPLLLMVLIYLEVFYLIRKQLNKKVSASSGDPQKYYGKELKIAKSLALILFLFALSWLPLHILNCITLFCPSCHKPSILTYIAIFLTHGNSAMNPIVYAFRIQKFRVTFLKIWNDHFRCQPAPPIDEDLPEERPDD
T3 sequence (P49840 whole entry): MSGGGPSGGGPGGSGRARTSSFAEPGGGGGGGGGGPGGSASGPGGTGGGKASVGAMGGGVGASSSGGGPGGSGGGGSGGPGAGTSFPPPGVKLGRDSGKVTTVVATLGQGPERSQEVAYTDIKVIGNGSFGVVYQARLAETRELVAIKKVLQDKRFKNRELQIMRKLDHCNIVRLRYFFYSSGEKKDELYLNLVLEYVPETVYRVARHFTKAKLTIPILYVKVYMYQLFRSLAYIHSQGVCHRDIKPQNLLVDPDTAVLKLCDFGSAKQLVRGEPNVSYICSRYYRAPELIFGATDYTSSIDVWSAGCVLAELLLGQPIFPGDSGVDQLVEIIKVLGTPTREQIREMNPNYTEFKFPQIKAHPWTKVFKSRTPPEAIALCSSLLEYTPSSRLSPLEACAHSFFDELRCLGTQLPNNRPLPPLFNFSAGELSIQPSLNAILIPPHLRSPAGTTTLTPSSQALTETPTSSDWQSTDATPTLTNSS
T12 sequence (P21728 whole entry): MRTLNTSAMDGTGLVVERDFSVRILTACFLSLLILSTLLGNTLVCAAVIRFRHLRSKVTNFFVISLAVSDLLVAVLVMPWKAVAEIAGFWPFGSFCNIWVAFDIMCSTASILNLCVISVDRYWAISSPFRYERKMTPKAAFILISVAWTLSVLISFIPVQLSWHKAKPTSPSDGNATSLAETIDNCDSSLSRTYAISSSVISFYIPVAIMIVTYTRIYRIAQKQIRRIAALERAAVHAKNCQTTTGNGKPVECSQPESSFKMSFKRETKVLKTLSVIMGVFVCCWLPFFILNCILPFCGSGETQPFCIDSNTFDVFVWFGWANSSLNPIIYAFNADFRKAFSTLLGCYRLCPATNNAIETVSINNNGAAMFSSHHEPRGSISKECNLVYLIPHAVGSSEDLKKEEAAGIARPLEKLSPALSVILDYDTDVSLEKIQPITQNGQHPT
Sequence of D1 (P21728 whole entry): as above
T2 sequence (P49760 whole entry): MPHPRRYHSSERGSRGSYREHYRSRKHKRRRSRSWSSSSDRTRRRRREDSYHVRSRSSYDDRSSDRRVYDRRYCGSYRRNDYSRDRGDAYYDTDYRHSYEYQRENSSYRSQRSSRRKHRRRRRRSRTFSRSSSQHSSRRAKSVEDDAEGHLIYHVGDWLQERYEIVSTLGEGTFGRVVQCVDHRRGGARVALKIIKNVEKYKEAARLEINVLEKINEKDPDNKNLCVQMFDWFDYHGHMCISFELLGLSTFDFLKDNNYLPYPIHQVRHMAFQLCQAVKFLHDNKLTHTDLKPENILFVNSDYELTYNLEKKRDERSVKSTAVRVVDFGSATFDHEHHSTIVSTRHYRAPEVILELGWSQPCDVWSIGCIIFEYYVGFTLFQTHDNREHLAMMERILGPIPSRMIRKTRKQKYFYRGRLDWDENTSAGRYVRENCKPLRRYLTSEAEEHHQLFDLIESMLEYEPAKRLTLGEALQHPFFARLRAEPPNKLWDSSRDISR

## CC1CCCN1C(=O)c1nc(C(=O)NCC(C)(C)O)sc1-c1ccc(C(O)(C(F)(F)F)C(F)(F)F)c(Cl)c1Cl (stereo not drawn) [JNJ-61803534]
[1]; agonist
  EC50: > 12.5 µM
[1]; antagonist
  IC50: > 12.5 µM
[2]; 100 mg single dose, fasted (cohort 3)
  maximum inhibition of ex vivo stimulated IL-17A production as compared to placebo: 45%
[2]; 200 mg single dose (cohort 4)
  maximum inhibition of ex vivo stimulated IL-17A production as compared to placebo: 54%
[2]; 10 and 30 mg doses
  IL-17A inhibition: did not appear to show a separation from placebo
[3]
  lymphocyte apoptosis in thymus: dose-dependent lymphocyte apoptosis in thymus was observed
[4]; female
  AUC(0-t): 376 µg·h/mL
  Cmax: 24.2 µg/mL
[4]; male
  AUC(0-t): 310 µg·h/mL
  Cmax: 29.6 µg/mL
[4]; both sexes, 1 month oral, highest dose tested, read-out: no-observed-adverse-effect level (NOAEL)
  NOAEL at 1 month: 400 mg/kg/day
[5]
  inhibition at 1 µM: < 10%
  inhibition at 10 µM: < 10%
[6]
  activity at 1 µM: 108%
  activity at 10 µM: 99%
[7]
  activity at 1 µM: 93%
  activity at 10 µM: 104%
[8]
  inhibition at 1 µM: < 10%
  inhibition at 10 µM: < 10%
[9]
  inhibition at 1 µM: < 10%
  inhibition at 10 µM: < 10%
[10]
  inhibition at 1 µM: < 10%
  inhibition at 10 µM: < 10%
[11]
  activity at 1 µM: 102%
  activity at 10 µM: 99%
[12]
  inhibition at 1 µM: < 10%
  inhibition at 10 µM: < 10%
[13]
  IC50: > 1.5 µM
[14]
  activity at 1 µM: 97%
  activity at 10 µM: 102%
[15]
  inhibition at 1 µM: < 10%
  inhibition at 10 µM: < 10%
[16]
  inhibition at 1 µM: < 10%
  inhibition at 10 µM: < 10%
[17]
  inhibition at 1 µM: < 10%
  inhibition at 10 µM: < 10%
[18]
  IC50: > 1.5 µM
[19]
  genetic toxicity: negative
[20]
  IC50: > 30 µM

Reference: PMC8155022 (Scientific Reports, 2021)
